# Experimental data taken from patent publication US20230355584A1, “COMPOSITIONS AND METHODS FOR THE TREATMENT OF LIPID-RELATED DISORDERS” (Raziel Therapeutics Ltd., priority 2020, published 2023).
# Key:
# Format in all cases: in vivo
# [1] = Phase 2a study: safety and tolerability (adverse events, vital signs); conditions: human subjects
# Description: 28 patients with submental skin fold thickness greater than 1.5 cm as measured with calipers were divided into two cohorts, Cohort 1 (12 patients) and Cohort 2 (16 subjects). In Cohort 1, 8 subjects were injected with a 50 mg per mL solution of 5-(3,6-dibromo-9H-carbazol-9-yl)-N,N,N-trimethylpentan-1-aminium chloride (Compound 1A) in a vehicle comprising water, propylene glycol, and a surfactant, and 4 patients were injected with a placebo solution comprising vehicle only. In Cohort 2, 6 patients were dosed with a placebo solution comprising vehicle only, and 10 patients were injected with a 50 mg per mL solution of 5-(3,6-dibromo-9H-carbazol-9-yl)-N,N,N-trimethylpentan-1-aminium chloride in a vehicle comprising water, propylene glycol, and a surfactant.
# The maximum compound dose was 120 mg per patient (a total of 48 injections at 2.5 mg per injection) for Cohort 1 and 240 mg per patient (a total of 48 injections at 5 mg per injection) for Cohort 2. Injections were given at a 90° angle to the injected skin surface and spaced of a submental area-shaped grid in which the distance between rows was 1 cm and the distance between columns was also 1 cm. Cohort 2 subjects began treatment after Cohort 1 was evaluated for safety on day 28 post-injection.
# submental fat [2] = experiment: Phase 2a study: submental fat volume by MRI; conditions: human subjects, day 84 vs prior to injection
# Description: 28 patients with submental skin fold thickness greater than 1.5 cm as measured with calipers were divided into two cohorts, Cohort 1 (12 patients) and Cohort 2 (16 subjects). In Cohort 1, 8 subjects were injected with a 50 mg per mL solution of 5-(3,6-dibromo-9H-carbazol-9-yl)-N,N,N-trimethylpentan-1-aminium chloride (Compound 1A) in a vehicle comprising water, propylene glycol, and a surfactant, and 4 patients were injected with a placebo solution comprising vehicle only. In Cohort 2, 6 patients were dosed with a placebo solution comprising vehicle only, and 10 patients were injected with a 50 mg per mL solution of 5-(3,6-dibromo-9H-carbazol-9-yl)-N,N,N-trimethylpentan-1-aminium chloride in a vehicle comprising water, propylene glycol, and a surfactant. […] Cohort 2 subjects began treatment after Cohort 1 was evaluated for safety on day 28 post-injection. Submental fat volume was determined via magnetic resonance imaging (MRI) prior to injection and on day 84 post-injection. Treatment efficacy was evaluated via the Physician’s Global Assessment (PGS) questionnaire on days 28, 56, and 84 after injection, as described above. Patient satisfaction was assessed using the FACE-Q questionnaire prior to injection and on days 28, 56, and 84 after injection, as described above.
# submental fat [3] = experiment: Phase 2a study: Subject Face-Q Questionnaire (subject satisfaction); conditions: human subjects, Day 84 vs. baseline
# Description: 28 patients with submental skin fold thickness greater than 1.5 cm as measured with calipers were divided into two cohorts, Cohort 1 (12 patients) and Cohort 2 (16 subjects). In Cohort 1, 8 subjects were injected with a 50 mg per mL solution of 5-(3,6-dibromo-9H-carbazol-9-yl)-N,N,N-trimethylpentan-1-aminium chloride (Compound 1A) in a vehicle comprising water, propylene glycol, and a surfactant, and 4 patients were injected with a placebo solution comprising vehicle only. […] Dosing is determined by cohort, as shown in Table 6 below: The maximum compound dose was 120 mg per patient (a total of 48 injections at 2.5 mg per injection) for Cohort 1 and 240 mg per patient (a total of 48 injections at 5 mg per injection) for Cohort 2. […] Cohort 2 subjects began treatment after Cohort 1 was evaluated for safety on day 28 post-injection. Subjects were also evaluated by a Face-Q Questionnaire, at baseline visit prior to injection and at posttreatment follow up visits on Days 28, 56, and 84. […] Submental fat volume was determined via magnetic resonance imaging (MRI) prior to injection and on day 84 post-injection. Treatment efficacy was evaluated via the Physician’s Global Assessment (PGS) questionnaire on days 28, 56, and 84 after injection, as described above. […]
# submental fat [4] = experiment: Phase 2a study: Physician Impression scale (physician's global assessment of submental fat); conditions: human, 18 treated subjects (low and high dose), Day 84 vs baseline
# Description: 28 patients with submental skin fold thickness greater than 1.5 cm as measured with calipers were divided into two cohorts, Cohort 1 (12 patients) and Cohort 2 (16 subjects). In Cohort 1, 8 subjects were injected with a 50 mg per mL solution of 5-(3,6-dibromo-9H-carbazol-9-yl)-N,N,N-trimethylpentan-1-aminium chloride (Compound 1A) in a vehicle comprising water, propylene glycol, and a surfactant, and 4 patients were injected with a placebo solution comprising vehicle only. […] Dosing is determined by cohort, as shown in Table 6 below: The maximum compound dose was 120 mg per patient (a total of 48 injections at 2.5 mg per injection) for Cohort 1 and 240 mg per patient (a total of 48 injections at 5 mg per injection) for Cohort 2. […] Cohort 2 subjects began treatment after Cohort 1 was evaluated for safety on day 28 post-injection. […] Submental fat volume was determined via magnetic resonance imaging (MRI) prior to injection and on day 84 post-injection. Treatment efficacy was evaluated via the Physician’s Global Assessment (PGS) questionnaire on days 28, 56, and 84 after injection, as described above. Patient satisfaction was assessed using the FACE-Q questionnaire prior to injection and on days 28, 56, and 84 after injection, as described above.
structure (smiles),measurement,setting,value
"C[N+](C)(C)CCCCCn1c2ccc(Br)cc2c2cc(Br)ccc21.[Cl-] [Compound 1A, 5-(3,6-dibromo-9H-carbazol-9-yl)-N,N,N-trimethylpentan-1-aminium chloride]",Severity of edema and induration compared to placebo,"[1]; high dose group, particularly in the first 24 hours following injection",higher severity
same,Safety and tolerability,"[1]; low and high doses (averaged doses of 80 mg and 158.5 mg), no clinically significant changes in vital signs",safe and well tolerated
same,Submental fat volume reduction (MRI),"submental fat [2]; high dose (Cohort 2, 5 mg/injection, up to 240 mg), P<0.05 vs the placebo group",-22.2% ± 14.9
same,Submental fat volume reduction (MRI),"submental fat [2]; low dose (Cohort 1, 2.5 mg/injection, up to 120 mg), P=0.55 vs the placebo group, NS",-10.6% ± 14.5
same,Fold increase in mean subject satisfaction score (Face-Q),submental fat [3]; high dose,2.5 fold
same,Fold increase in mean subject satisfaction score (Face-Q),submental fat [3]; low dose,2.4 fold
same,Subjects demonstrating improvement in submental fat (Physician Impression scale),submental fat [4],all but one of the 18
